From US11331299B2, “Medicinal use of serrulatane diterpenes” (The University of Sydney, priority 2016, dated 2022)
Read-outs that look alike come from different tables or passages of the source.

Tested on: 280 human cancer cell lines
Assay: OncoPanel cell proliferation assay (10-day)
Type: cell-based
Conditions: Homo sapiens; for GI50: read-out: Cell Count GI50; for IC50: read-out: Cell Count IC50; for EC50: read-out: Cell Count EC50
[1] = C-4-II, C-4 II, Female GU - Cervix
[2] = C-33-A, C-33A, Female GU - Cervix
[3] = CAL-62, CAL-62, Endocrine - Thyroid
[4] = CCF-STTG1, CCF-STTG1, CNS - Glioma
[5] = CGTH-W-1, CGTH-W-1, Endocrine - Thyroid
[6] = CHP-212, CHP-212, CNS - Neuroblastoma
[7] = COLO-320-HSR, Colo 320 HSR, Colon
[8] = COLO-829, COLO 829, Skin (Melanoma)
[9] = COR-L105, COR-L105, Lung - NSCLC
[10] = Ca-Ski, Ca Ski, Female GU - Ovary

CC(C)=CCC[C@@H]1C(O)Oc2c(C)cc(O)c3c2[C@H]1CC[C@H]3C (some centres unmarked) [Compound 2, 5,18-epoxyserrulat-14-en-8,18-diol]
GI50 (BT-474, BT474, Breast): > 30 µM | IC50 (BT-474, BT474, Breast): > 30 µM | EC50 (BT-549, BT-549, Breast): 25.8 µM | GI50 (BT-549, BT-549, Breast): 25.8 µM | IC50 (BT-549, BT-549, Breast): 25.9 µM | EC50 (BV-173, BV-173, Leukemia): 9.33 µM | GI50 (BV-173, BV-173, Leukemia): 9.33 µM | IC50 (BV-173, BV-173, Leukemia): 9.33 µM | EC50 (BXPC-3, BxPC-3, Pancreas): 13 µM | GI50 (BXPC-3, BxPC-3, Pancreas): > 30 µM | IC50 (BXPC-3, BxPC-3, Pancreas): > 30 µM | EC50 (BeWo, Placenta): 7.68 µM | GI50 (BeWo, Placenta): > 30 µM | IC50 (BeWo, Placenta): > 30 µM | EC50 (C32, Skin (Melanoma)): 19.2 µM | GI50 (C32, Skin (Melanoma)): 15.5 µM | IC50 (C32, Skin (Melanoma)): 19.2 µM | EC50 [1]: 8.94 µM | GI50 [1]: 9 µM | IC50 [1]: 9.03 µM | EC50 [2]: 12 µM | GI50 [2]: 11.9 µM | IC50 [2]: 12 µM | EC50 (CA46, CA46, Lymphoma): 3.83 µM | GI50 (CA46, CA46, Lymphoma): 3.82 µM | IC50 (CA46, CA46, Lymphoma): 3.83 µM | EC50 (CAKI-1, Caki-1, Kidney): 0.17 µM | GI50 (CAKI-1, Caki-1, Kidney): > 30 µM | IC50 (CAKI-1, Caki-1, Kidney): > 30 µM | EC50 (CAKI-2, Caki-2, Kidney): 28.8 µM | GI50 (CAKI-2, Caki-2, Kidney): 28.9 µM | IC50 (CAKI-2, Caki-2, Kidney): 29.1 µM | EC50 (CAL-27, Cal 27, Head and Neck): 7.64 µM | GI50 (CAL-27, Cal 27, Head and Neck): 7.62 µM | IC50 (CAL-27, Cal 27, Head and Neck): 7.64 µM | EC50 [3]: 5.6 µM | GI50 [3]: 5.78 µM | IC50 [3]: 5.79 µM | EC50 (CAMA-1, CAMA-1, Breast): > 30 µM | GI50 (CAMA-1, CAMA-1, Breast): > 30 µM | IC50 (CAMA-1, CAMA-1, Breast): > 30 µM | EC50 (CAPAN-1, Capan-1, Pancreas): > 30 µM | GI50 (CAPAN-1, Capan-1, Pancreas): > 30 µM | IC50 (CAPAN-1, Capan-1, Pancreas): > 30 µM | EC50 [4]: > 30 µM | GI50 [4]: > 30 µM | IC50 [4]: > 30 µM | EC50 (CCRF-CEM, CCRFCEM, Leukemia): 11.5 µM | GI50 (CCRF-CEM, CCRFCEM, Leukemia): 11.4 µM | IC50 (CCRF-CEM, CCRFCEM, Leukemia): 11.5 µM | EC50 (CEM/C1, CEM-C1, Leukemia): 3.26 µM | GI50 (CEM/C1, CEM-C1, Leukemia): 3.26 µM | IC50 (CEM/C1, CEM-C1, Leukemia): 3.26 µM | EC50 (CFPAC-1, CFPAC-1, Pancreas): 12.3 µM | GI50 (CFPAC-1, CFPAC-1, Pancreas): 13.4 µM | IC50 (CFPAC-1, CFPAC-1, Pancreas): 13.5 µM | EC50 [5]: 5.83 µM | GI50 [5]: 5.81 µM | IC50 [5]: 5.83 µM | EC50 (CHL-1, CHL-1, Skin (Melanoma)): 14.3 µM | GI50 (CHL-1, CHL-1, Skin (Melanoma)): 14.2 µM | IC50 (CHL-1, CHL-1, Skin (Melanoma)): 14.3 µM | EC50 [6]: 11.4 µM | GI50 [6]: 11.1 µM | IC50 [6]: 11.4 µM | EC50 (CML-T1, CML-T1, Leukemia): 3.69 µM | GI50 (CML-T1, CML-T1, Leukemia): 3.68 µM | IC50 (CML-T1, CML-T1, Leukemia): 3.69 µM | EC50 (COLO 201, Colo 201, Colon): 8.51 µM | GI50 (COLO 201, Colo 201, Colon): 8.45 µM | IC50 (COLO 201, Colo 201, Colon): 8.51 µM | EC50 (COLO 205, Colo 205, Colon): 10.7 µM | GI50 (COLO 205, Colo 205, Colon): 10.7 µM | IC50 (COLO 205, Colo 205, Colon): 10.7 µM | EC50 (COLO 320DM, Colon): 7.72 µM | GI50 (COLO 320DM, Colon): 7.67 µM | IC50 (COLO 320DM, Colon): 7.72 µM | EC50 [7]: 11.6 µM | GI50 [7]: 11.6 µM | IC50 [7]: 11.6 µM | EC50 [8]: 5.35 µM | GI50 [8]: 4.93 µM | IC50 [8]: 5.35 µM | EC50 (COR-L23, COR-L23, Lung - NSCLC): 23.8 µM | GI50 (COR-L23, COR-L23, Lung - NSCLC): 23.6 µM | IC50 (COR-L23, COR-L23, Lung - NSCLC): 23.8 µM | EC50 [9]: 4.76 µM | GI50 [9]: 4.61 µM | IC50 [9]: 4.76 µM | EC50 (CRO-AP2, CRO-AP2, Lymphoma): 6.38 µM | GI50 (CRO-AP2, CRO-AP2, Lymphoma): 6.36 µM | IC50 (CRO-AP2, CRO-AP2, Lymphoma): 6.38 µM | EC50 [10]: > 30 µM | GI50 [10]: > 30 µM | IC50 [10]: > 30 µM | EC50 (Calu-1, Calu1, Lung - NSCLC): 13.9 µM | GI50 (Calu-1, Calu1, Lung - NSCLC): 13.8 µM | IC50 (Calu-1, Calu1, Lung - NSCLC): 13.9 µM | EC50 (Calu-6, Calu6, Lung - NSCLC): 14.5 µM | GI50 (Calu-6, Calu6, Lung - NSCLC): 15.7 µM | IC50 (Calu-6, Calu6, Lung - NSCLC): 16.6 µM
